According to patent publication US20110178104A1, “Anti-Heparin Compounds” (POLYMEDIX INC., priority 2010, published 2011):
Values joined by “and” are separate entries in the source; they are usually repeats but may differ in a detail not shown here. Equal entries are not always repeated.

Experiments:
Unfractionated heparin = assay: aPTT clotting assay, UFH 0.4 U/mL in plasma (Example 10); type: biochemical; details: unfractionated heparin 0.4 U/mL in plasma; aPTT clotting
Method: aPTT clotting Assay: Unfractionated heparin was mixed with plasma at a final concentration of 0.4 U/mL (or concentration which increases aPTT time to between 120 and 300 seconds). […] The ACL Elite Hemostasis analyzer (Beckman Coulter™) was used to add aPTT reagent (HemosIL SynthASil) to supplemented plasma. Clotting was initiated by addition of CaCl2 and time to clot was recorded.

enoxaparin = assay: FXa amidolytic assay (Example 10), enoxaparin; details: read-out: Enox FXa EC50; enoxaparin 0.1 ug/ml; human antithrombin, bovine Factor Xa
Method: (§1) Two μl of test agent are added (range between 0.01 and 23 ug/ml) and incubated for 5 minutes at 23° C. Bovine Factor Xa was added to a final concentration of 0.636 nkat/mL and incubated for a further 10 minutes at 23° C.

tinzaparin = assay: FXa amidolytic assay (Example 10), tinzaparin; details: read-out: Tinzap FXa EC50; tinzaparin 0.1 ug/ml; human antithrombin, bovine Factor Xa
Method: as §1

fondaparinux = assay: FXa amidolytic assay (Example 10), fondaparinux; details: read-out: Fondap FXa EC50; fondaparinux 0.02 μg/mL; human antithrombin, bovine Factor Xa
Method: as §1

| SMILES | EC50 (Unfractionated heparin) | EC50 (enoxaparin) | EC50 (tinzaparin) | EC50 (fondaparinux) |
| --- | --- | --- | --- | --- |
| COc1ccc(NC(=O)[C@H](CCCNC(N)=O)NC(=O)c2cc(NC(=O)[C@H](CCCCN)NC(=O)c3cc(NC(=O)[C@H](CCCCN)NC(=O)c4cc(NC(=O)[C@@H](N)CCCCN)ccc4OC)ccc3OC)ccc2OC)cc1C(N)=O [Compound 259] | 1570 nM | 267 nM | 180 nM | 2880 nM |
| COc1ccc(NC(=O)[C@H](CCCCN)NC(=O)c2cc(NC(=O)[C@H](CCCCN)NC(=O)c3cc(NC(=O)[C@H](CCCCN)NC(=O)c4cc(NC(=O)[C@@H](N)CCCCN)ccc4OC)ccc3OC)ccc2OC)cc1C(=O)NCC(=O)O [Compound 260] | 1660 nM and 1410 nM | 399 nM and 284 nM | 247 nM and 215 nM | 5080 nM and 3970 nM |
| COc1ccc(NC(=O)[C@H](CCCCN)NC(=O)c2cc(NC(=O)[C@H](CCCCN)NC(=O)c3cc(NC(=O)[C@H](CCCCN)NC(=O)c4cc(NC(=O)[C@@H](N)CCCCN)ccc4OC)ccc3OC)ccc2OC)cc1C(=O)N[C@@H](C)C(=O)O [Compound 262] | 1260 nM | 344 nM | 213 nM | 5570 nM |
| COc1ccc(NC(=O)[C@H](CCCCN)NC(=O)c2cc(NC(=O)[C@@H](N)CCCCN)ccc2OC)cc1C(=O)N[C@@H](CCCCN)C(=O)Nc1ccc(OC)c(C(=O)N[C@@H](CCCCN)C(=O)Nc2ccc(OC)c(C(=O)N[C@H](Cc3ccccc3)C(=O)O)c2)c1 [Compound 264] | 1380 nM | 731 nM | 365 nM | > 10000 nM |
| COc1ccc(NC(=O)[C@H](CCCCN)NC(=O)c2cc(NC(=O)[C@@H](N)CCCCN)ccc2OC)cc1C(=O)N[C@@H](CCCCN)C(=O)Nc1ccc(OC)c(C(=O)N[C@@H](CCCCN)C(=O)Nc2ccc(OC)c(C(=O)N[C@H](C(=O)O)C(C)C)c2)c1 [Compound 267] | 1670 nM | 543 nM | 313 nM | 6990 nM |
| COc1ccc(NC(=O)[C@H](CCCCN)NC(=O)c2cc(NC(=O)[C@@H](N)CCCCN)ccc2OC)cc1C(=O)N[C@@H](CCCCN)C(=O)Nc1ccc(SC)c(C(=O)N[C@@H](CCCCN)C(=O)Nc2ccc(SC)c(C(N)=O)c2)c1 [Compound 268] | > 10000 nM | > 5000 nM | > 5000 nM | > 10000 nM |
| COc1ccc(NC(=O)[C@H](CCCCN)NC(=O)c2cc(NC(=O)[C@H](CCCCN)NC(=O)c3cc(NC(=O)[C@@H](N)CCCCN)ccc3OC)ccc2OC)cc1C(=O)N[C@@H](CCCCN)C(=O)Nc1ccc(OCC(=O)O)c(C(N)=O)c1 [Compound 269] | 1780 nM | 247 nM | 165 nM | 5110 nM |
| COc1ccc(NC(=O)[C@H](CCCCN)NC(=O)c2cc(NC(=O)[C@H](CCCCN)NC(=O)c3cc(NC(=O)[C@H](CCCCN)NC(=O)c4cc(NC(=O)[C@@H](N)CCCCN)ccc4OC)ccc3OC)ccc2OCC(=O)O)cc1C(N)=O [Compound 270] | 1250 nM | 533 nM | 349 nM | 4050 nM |
| COc1ccc(NC(=O)[C@H](CCCCN)NC(=O)c2cc(NC(=O)[C@H](CCCCN)NC(=O)c3cc(NC(=O)[C@H](CCCCN)NC(=O)c4cc(NC(=O)[C@@H](N)CCCCN)ccc4OC)ccc3OCC(=O)O)ccc2OC)cc1C(N)=O [Compound 271] | 1640 nM | 219 nM | 135 nM | 3120 nM |
| COc1ccc(NC(=O)[C@H](CCCCN)NC(=O)c2cc(NC(=O)[C@H](CCCCN)NC(=O)c3cc(NC(=O)[C@H](CCCCN)NC(=O)c4cc(NC(=O)[C@@H](N)CCCCN)ccc4OCC(=O)O)ccc3OC)ccc2OC)cc1C(N)=O [Compound 272] | 3090 nM | 541 nM | 240 nM | 7690 nM |
| COc1ccc(NC(=O)[C@H](CCCCN)NC(=O)c2cc(NC(=O)[C@H](CCCCN)NC(=O)c3cc(NC(=O)[C@H](CCCCN)NC(=O)c4cc(NC(=O)[C@@H](N)CCCCN)ccc4OC)ccc3OC)ccc2OC)cc1C(=O)N[C@@H](CCCNC(N)=O)C(=O)O [Compound 273] | 1550 nM | 319 nM | 202 nM | 3800 nM |
| COc1ccc(NC(=O)[C@H](CCCCN)NC(=O)c2cc(NC(=O)[C@H](CCCCN)NC(=O)c3cc(NC(=O)[C@H](CCCCN)NC(=O)c4cc(NC(=O)[C@@H](N)CCCCN)ccc4OC)ccc3OC)ccc2OC)cc1C(=O)NCCCCCC(=O)O [Compound 274] | 1630 nM | 558 nM | 299 nM | 7020 nM |
| COc1ccc(NC(=O)[C@H](CCCCN)NC(=O)c2cc(NC(=O)[C@H](CCCCN)NC(=O)c3cc(NC(=O)[C@H](CCCCN)NC(=O)c4cc(NC(=O)[C@@H](N)CCCCN)ccc4OC)ccc3OC)ccc2OC)cc1C(=O)N[C@@H](CCC(=O)O)C(=O)O [Compound 276] | 2330 nM | 625 nM | 363 nM | 5180 nM |
| COc1ccc(NC(=O)[C@H](CCCCN)NC(=O)c2cc(NC(=O)[C@@H](N)CCCCN)ccc2OC)cc1C(=O)N[C@@H](CCCCN)C(=O)Nc1ccc(OC)c(C(=O)N[C@@H](CCCCN)C(=O)Nc2ccc(OC)c(C(=O)N[C@H](C)C(=O)O)c2)c1 [Compound 277] | 1550 nM | 581 nM | 285 nM | 10800 nM |
| COc1ccc(NC(=O)[C@@H](CCCNC(=N)N)NC(=O)c2cc(NC(=O)[C@@H](CCCNC(=N)N)NC(=O)c3cc(NC(=O)[C@@H](CCCNC(=N)N)NC(=O)c4cc(NC(=O)[C@H](N)CCCNC(=N)N)ccc4OC)ccc3OC)ccc2OC)cc1C(=O)NCCC(=O)O [Compound 279] | 1950 nM | 154 nM | 134 nM | 775 nM |
| COc1ccc(NC(=O)[C@H](N)CCCNC(=N)N)cc1C(=O)N[C@H](CCCNC(=N)N)C(=O)Nc1ccc(OC)c(C(=O)N[C@H](CCCNC(=N)N)C(=O)Nc2ccc(OC)c(C(=O)N[C@H](CCCNC(=N)N)C(=O)Nc3ccc(OCC(=O)O)c(C(N)=O)c3)c2)c1 [Compound 280] | 1630 nM | 133 nM | 120 nM | 581 nM |
| COc1ccc(NC(=O)[C@@H](CCCNC(=N)N)NC(=O)c2cc(NC(=O)[C@@H](CCCNC(=N)N)NC(=O)c3cc(NC(=O)[C@@H](CCCNC(=N)N)NC(=O)c4cc(NC(=O)[C@H](N)CCCNC(=N)N)ccc4OC)ccc3OCC(=O)O)ccc2OC)cc1C(N)=O [Compound 282] | 2000 nM | 121 nM | 114 nM | 424 nM |
| COc1ccc(NC(=O)[C@H](CCCNC(=N)N)NC(=O)c2cc(NC(=O)[C@H](CCCNC(=N)N)NC(=O)c3cc(NC(=O)[C@H](CCCNC(=N)N)NC(=O)c4cc(NC(=O)[C@@H](N)CCCNC(=N)N)ccc4OC)ccc3OC)ccc2OC)cc1C(=O)NCCC(=O)O [Compound 285] | 2150 nM | 169 nM | 151 nM | 799 nM |
| COc1ccc(NC(=O)[C@H](CCCNC(=N)N)NC(=O)c2cc(NC(=O)[C@H](CCCNC(=N)N)NC(=O)c3cc(NC(=O)[C@@H](N)CCCNC(=N)N)ccc3OC)ccc2OC)cc1C(=O)N[C@@H](CCCNC(=N)N)C(=O)Nc1ccc(OCC(=O)O)c(C(N)=O)c1 [Compound 286] | 1900 nM | 118 nM | 104 nM | 526 nM |
| COc1ccc(NC(=O)[C@H](CCCNC(=N)N)NC(=O)c2cc(NC(=O)[C@H](CCCNC(=N)N)NC(=O)c3cc(NC(=O)[C@H](CCCNC(=N)N)NC(=O)c4cc(NC(=O)[C@@H](N)CCCNC(=N)N)ccc4OCC(=O)O)ccc3OC)ccc2OC)cc1C(N)=O [Compound 289] | 1760 nM | 133 nM | 108 nM | 508 nM |
| COc1ccc(NC(=O)[C@H](CCCCN)NC(=O)c2cc(NC(=O)[C@H](CCCCN)NC(=O)c3cc(NC(=O)[C@H](CCCCN)NC(=O)c4cc(NC(=O)[C@H](CCCCN)NC(=O)CC(=O)O)ccc4OC)ccc3OC)ccc2OC)cc1C(N)=O [Compound 290] | 2270 nM | 318 nM | 212 nM | 1880 nM |
| COc1ccc(NC(=O)[C@@H](CCCNC(=N)N)NC(=O)c2cc(NC(=O)[C@@H](CCCNC(=N)N)NC(=O)c3cc(NC(=O)[C@@H](CCCNC(=N)N)NC(=O)c4cc(NC(C)=O)ccc4OC)ccc3OC)ccc2OC)cc1C(=O)NCC(=O)O [Compound 294] | 2740 nM | 264 nM | 264 nM | 244 nM |
| COc1ccc(NC(=O)[C@@H](CCCNC(=N)N)NC(=O)c2cc(NC(=O)[C@@H](CCCNC(=N)N)NC(=O)c3cc(NC(=O)[C@@H](CCCNC(=N)N)NC(=O)c4cc(NC(C)=O)ccc4OC)ccc3OC)ccc2OC)cc1C(=O)NCCC(=O)O [Compound 295] | 3990 nM | 312 nM | 325 nM | 387 nM |
| COc1ccc(NC(=O)[C@@H](CCCNC(=N)N)NC(=O)c2cc(NC(=O)[C@@H](CCCNC(=N)N)NC(=O)c3cc(NC(=O)[C@@H](CCCNC(=N)N)NC(=O)c4cc(NC(C)=O)ccc4OC)ccc3OC)ccc2OC)cc1C(=O)N[C@@H](Cc1ccc(O)cc1)C(=O)O [Compound 296] | 15300 nM | 286 nM | 296 nM | 437 nM |
| COc1ccc(NC(=O)[C@H](CCCNC(=N)N)NC(=O)c2cc(NC(=O)[C@H](CCCNC(=N)N)NC(=O)c3cc(NC(=O)[C@H](CCCNC(=N)N)NC(=O)c4cc(NC(C)=O)ccc4OC)ccc3OC)ccc2OC)cc1C(=O)NCC(=O)O [Compound 299] | 2900 nM | 243 nM | 242 nM | 265 nM |
| COc1ccc(NC(=O)[C@H](CCCNC(=N)N)NC(=O)c2cc(NC(=O)[C@H](CCCNC(=N)N)NC(=O)c3cc(NC(=O)[C@H](CCCNC(=N)N)NC(=O)c4cc(NC(C)=O)ccc4OC)ccc3OC)ccc2OC)cc1C(=O)NCCC(=O)O [Compound 300] | 3430 nM | 272 nM | 311 nM | 462 nM |
